Entries after “also recorded” stand apart in the source; their conditions may differ.
Experiments:
[1] = test system: CD10+ positive target cells and CD3+ T-cells; assay: Interaction of CD10 positive tumour cells with T-cells in pleural effusion/PBMC monolayers of a B-cell lymphoma patient; format: cell-based, human
Procedure: FIG. 12: interactions between CD10+ positive target cells, which according to pathology review comprised the tumour cells, and CD3+ T-cells were measured in a sample of a B-cell lymphoma patient in response to blinatumomab treatment for 24 h using the methods of the present invention and quantified as an interaction score. […] The different graphs show different amounts of cells isolated from pleural effusion (PE) of the patient mixed with different amounts of matched PBMCs from the same patient.
Pleural effusion from a patient with a B-cell lymphoma was collected by gradient density centrifugation. This pleural effusion consisted of a mixture of cell types found in bone marrow and PBMCs having migrated to the pleural cavity with concomitant fluid build-up and contained cancer as well as healthy cells. A matched sample of blood was also purified over Lymphoprep gradient. Cells obtained from the pleural effusion were titrated against cells from the matched PBMC samples and monolayers prepared according to WO2016/046346. Monolayers were treated with different concentrations of blinatumomab and the interaction of tumour cell populations previously determined to be CD10 positive by a pathologist with effector T-cells determined using the methods described in the present invention.

[2] = test system: B-cell lymphoma; assay: Clinical response of the B-cell lymphoma patient to treatment; format: in vivo, human; settings: one B-cell lymphoma patient given the drug
[3] = test system: B and T cells; assay: Interaction propensity of B and T cells in combined bone marrow and PBMCs of B-ALL patients; format: cell-based, human; settings: B-ALL bone marrow plus PBMCs, vs PBS control
Source text: (§1) Bone marrow of a patients with B-cell acute lymphoblastic leukemia (B-ALL) and PBMCs of the same patient are combined, treated with blinatumomab or PBS control and the interaction propensity of B and T cells in non-adherent cell monolayers obtained from treated and untreated combined sample according to WO 2016/046346 determined using the present invention.

[4] = test system: B (CD19 positive) and NK cells (CD58 positive); assay: Interaction propensity of B (CD19 positive) and NK cells in PBMC monolayers; format: cell-based, human; settings: 48 h, over PBS control (0)
Source text: FIG. 11: Measured interaction propensity expressed as Log 2 interaction score of CD19 cells to CD56 cells with increasing concentrations of the clinically approved biologic drug Rituxidmab, with media alone as a control (0). Rituximab has a known mechanism of action bringing together NK-cells and cancerous B-cells, and through this interaction inducing cancer, reducing the cancerous burden.
(§2) PBMC monolayers were provided as described in WO 2016/046346, treated with rituximab or PBS control (0) for 48 h, fixed, stained with fluorescently labeled CD56 and CD19 antibodies and imaged using automated confocal microscopy. Subsequently, the interaction propensity of B (CD19 positive) and NK cells (CD58 positive) in the provided non-adherent cell monolayers was determined using the present invention.

[5] = test system: B (CD19 positive) and T cells (CD3 positive); assay: Interaction propensity of B (CD19 positive) and T cells (CD3 positive) in PBMC monolayers; format: cell-based, human; settings: PBMC monolayers (healthy blood), 48 h, over PBS control (0)
Source text: FIG. 9: Measured interaction propensity expressed as Log 2 interaction score of CD3 cells to […] with increasing concentrations of the clinically approved biologic drug Blinatumomab, with media alone as a control (0). Blinatumomab has a known mechanism of action bringing together cytotoxic or other T-cells and cancerous B-cells, through this interaction, Inducing cancer cell killing and thus reducing the cancerous burden.
as §2, with “blinatumomab” for “rituximab”, “CD3” for “CD56”, “T” for “NK”, “(CD3” for “(CD58”

[6] = test system: CD11C and CD3 cells; assay: Interaction propensity of CD11C and CD3 cells in PBMC monolayers of a healthy donor; format: cell-based, human; settings: PBMCs of a healthy donor, various concentrations, vs DMSO control
Procedure: FIG. 10: Measured interaction propensity expressed as Log 2 interaction score of CD11c and CD3 cells after treatment with the small molecule Crizotinib.
PBMCs of a healthy donor are treated with Crizotinib or DMSO control at various concentrations and the interaction propensity of CD11C and CD3 cells in non adherent cell monolayers obtained from treated and untreated combined sample according to WO 2016/046346 determined using the present invention.

[7] = test system: B and NK cells; assay: Interaction propensity of B and NK cells in combined bone marrow and PBMCs of B-ALL patients; format: cell-based, human; settings: B-ALL bone marrow plus PBMCs, vs PBS control
Source text: as §1, with “Rituximab” for “blinatumomab”, “NK” for “T”

[8] = patients not responding clinically
[9] = patients responding to the drug

Compound: blinatumomab: bispecific antibody in BITE format that cross links B and T cells inducing T cells to kill B cells
- fraction of tumour B-cells ([1]; B-cell lymphoma patient sample, ex vivo treatment): did not change significantly
- interaction of CD10 positive tumour cells with effector T-cells (interaction score) ([1]; B-cell lymphoma patient, pleural effusion cells mixed with matched PBMCs, different concentrations, 24 h): this was not the case for this patient; also recorded: no such interaction change was observed
- clinical response of the patient [2]: not to respond; also recorded: transient and weak response
- interaction propensity between B and T cells [3, 8]: do not exhibit this increase
- interaction propensity between B and T cells [3, 9]: increase
- interaction propensity between B and NK cells [4]: increase
- interaction propensity between B and T cells [5]: increases
- interaction propensity between B and T cells ([5]; listed as blinatomumab): increase

Compound: C[C@@H](Oc1cc(-c2cnn(C3CCNCC3)c2)cnc1N)c1c(Cl)ccc(F)c1Cl [Crizotinib]
- interaction of DCs and T-cells as indicated by the interaction score [6]: increase

Compound: Rituximab: anti-CD20 antibody that links B and NK cells, inducing NK cells to kill B cells
- interaction propensity between B and NK cells [7, 8]: do not exhibit this increase
- interaction propensity between B and NK cells [7, 9]: increase

Reference: patent US20200064348A1, “METHODS FOR DETERMINING INTERACTION BETWEEN BIOLOGICAL CELLS” (CeMM - Forschungszentrum für Molekulare Medizin GmbH, priority 2017, published 2020)
